Experimental data: patent US20190328706A1, “COMPOSITIONS COMPRISING AN INTEGRIN INHIBITOR AND AGENTS WHICH INTERACT WITH A CHEMOKINE AND METHODS OF USE THEREOF” (Saint Louis University, priority 2016, published 2019)
Where two headings read alike, the source gives them in different places.

System: human G2 acute lymphoblastic leukemia (ALL) cells
Assay: Flow cytometry cell-based assay: inhibition of soluble VCAM-1 binding to G2 ALL cells
Conditions: for IC50: inhibition of sVCAM-1 binding to human G2 ALL cells, read-out: sVCAM-1 IC50; for inhibition of sVCAM-1 binding compared with other inhibitors / inhibition of sVCAM-1 binding compared with Firategrast: flow cytometry; for inhibition of sVCAM-1 binding compared with other inhibitors: FIG. 6, 7, 10, 11; for inhibition of sVCAM-1 binding compared with Firategrast: FIG. 5, 8, 9, 12
Method: (§1) Compounds were tested for their ability to inhibit the binding of soluble VCAM-1 to human G2 acute lymphoblastic leukemia (ALL) cells. Briefly, G2 ALL cells are pre-incubated with increasing concentrations (0.001 to 1000 nM) of compounds for 30 minutes. Soluble VCAM/Fc chimera protein (R&D systems) is then added to the mixture and the cells incubated for an additional 30 minutes. Afterwards, cells are washed and VCAM-1 is detected using PE-conjugated secondary mAbs. In each experiment, an aliquot of cells will be stained with isotype control mAbs to serve as a negative control. The percentage of VCAM-1 binding cells was then determined by flow cytometry.
as §1, with “(ALL) cells or 5TGMI myeloma” for “(ALL)”, “ALL or 5TGMI” for “ALL”

Q: How did the IC50 (Table 8) turn out when COc1cc(C(N)=O)cc(OC)c1-c1ccc(C[C@H](NC(=O)c2c(Cl)cc(C(=O)O)cc2Cl)C(=O)O)cc1 [Compound 1219, 4-{[(1S)-2-[4-(4-carbamoyl-2,6-dimethoxyphenyl)phenyl]-1-carboxyethyl]carbamoyl}-3,5-dichlorobenzoic acid] was run?
A: 72 nM

Q: Which IC50 (Table 8) does the source give for COc1cc(C(=O)O)cc(OC)c1-c1ccc(C[C@H](NC(=O)c2c(Cl)cc(C(=O)O)cc2Cl)C(=O)O)cc1 [Compound 1222, 4-{4-[(2S)-2-carboxy-2-[(4-carboxy-2,6-dichlorophenyl)formamido]ethyl]phenyl}-3,5-dimethoxybenzoic acid] here?
A: 218 nM

Q: Which results are given for CCOCc1cc(OC)c(-c2ccc(C[C@H](NC(=O)c3c(Cl)cc(C(=O)O)cc3Cl)C(=O)O)cc2)c(OC)c1 [Compound 1221, 4-{[(1S)-1-carboxy-2-{4-[4-(ethoxymethyl)-2,6-dimethoxyphenyl]phenyl}ethyl]carbamoyl}-3,5-dichlorobenzoic acid]?
A: IC50 (Table 8): 0.58 nM; inhibition of sVCAM-1 binding compared with other inhibitors: more potent inhibitors than 823

Q: Which results are given for COc1cc(CO)cc(OC)c1-c1ccc(C[C@H](NC(=O)c2c(Cl)cc(C(=O)O)cc2Cl)C(=O)O)cc1 [Compound 1220, 4-{[(1S)-1-carboxy-2-{4-[4-(hydroxymethyl)-2,6-dimethoxyphenyl]phenyl}ethyl]carbamoyl}-3,5-dichlorobenzoic acid]?
A: IC50 (Table 8): 0.47 nM; inhibition of sVCAM-1 binding compared with other inhibitors: more potent inhibitors than 823

Q: Which IC50 (Table 12) does the source give for COc1cc(C(N)=O)cc(OC)c1-c1ccc(C[C@H](NC(=O)c2c(Cl)cc(C(=O)O)cc2Cl)C(=O)O)cc1 [Cmpd 21, 4-{[(1S)-2-[4-(4-carbamoyl-2,6-dimethoxyphenyl)phenyl]-1-carboxyethyl]carbamoyl}-3,5-dichlorobenzoic acid] here?
A: 72 nM

Q: Which IC50 (Table 8) does the source give for CCOCc1cc(OC)c(-c2ccc(C[C@H](NC(=O)[C@]3(C)CCCN3S(=O)(=O)c3cc(Cl)cc(Cl)c3)C(=O)O)cc2)c(OC)c1 [Compound 1608, (S)-2-((S)-1-((3,5-dichlorophenyl)sulfonyl)-2-methylpyrrolidine-2-carboxamido)-3-(4′-(ethoxymethyl)-2′,6′-dimethoxy-[1,1′-biphenyl]-4-yl)propanoic acid] here?
A: 2.47 nM

Q: What about the “inhibition of sVCAM-1 binding compared with Firategrast” value (from here on “inhibition … compared with Firategrast”) of the same compound?
A: significantly more potent than Firategrast

Q: With COCCOCc1cc(OC)c(-c2ccc(C[C@H](NC(=O)[C@@H]3CCN3S(=O)(=O)c3cc(Cl)cc(Cl)c3)C(=O)O)cc2)c(OC)c1 [Compound 1746, (S)-2-((S)-1-((3,5-dichlorophenyl)sulfonyl)azetidine-2-carboxamido)-3-(2′,6′-dimethoxy-4′-((2-methoxyethoxy)methyl)-[1,1′-biphenyl]-4-yl)propanoic acid] as the compound, how does the IC50 (Table 8) read?
A: 3.79 nM

Q: What about the “inhibition of sVCAM-1 binding compared with other inhibitors” value of the same compound?
A: inhibition was greatest

Q: With COc1cc(C(=O)O)cc(OC)c1-c1ccc(C[C@H](NC(=O)c2c(Cl)cc(C(=O)O)cc2Cl)C(=O)O)cc1 [Cmpd 24, 4-{4-[(2S)-2-carboxy-2-[(4-carboxy-2,6-dichlorophenyl)formamido]ethyl]phenyl}-3,5-dimethoxybenzoic acid] as the compound, how does the IC50 (Table 12) read?
A: 218 nM

Q: How did the IC50 (Table 8) turn out when COc1cc(CF)cc(OC)c1-c1ccc(C[C@H](NC(=O)c2c(Cl)cc(C(=O)O)cc2Cl)C(=O)O)cc1 [Compound 1224, 4-{[(1S)-1-carboxy-2-{4-[4-(fluoromethyl)-2,6-dimethoxyphenyl]phenyl}ethyl]carbamoyl}-3,5-dichlorobenzoic acid] was run?
A: 1.57 nM

Q: What about the “inhibition of sVCAM-1 binding compared with other inhibitors” value of the same compound?
A: more potent inhibitors than 823

Q: For COc1cc(CF)cc(OC)c1-c1ccc(C[C@H](NC(=O)c2c(Cl)cc(C(=O)O)cc2Cl)C(=O)O)cc1 [Cmpd 26, 4-{[(1S)-1-carboxy-2-{4-[4-(fluoromethyl)-2,6-dimethoxyphenyl]phenyl}ethyl]carbamoyl}-3,5-dichlorobenzoic acid], which IC50 (Table 12) is on record?
A: 1.57 nM

Q: For COc1cc(CO)cc(OC)c1-c1ccc(C[C@H](NC(=O)c2c(Cl)cc(C(=O)O)cc2Cl)C(=O)O)cc1 [Cmpd 22, 4-{[(1S)-1-carboxy-2-{4-[4-(hydroxymethyl)-2,6-dimethoxyphenyl]phenyl}ethyl]carbamoyl}-3,5-dichlorobenzoic acid], which IC50 (Table 12) is on record?
A: 0.47 nM

Q: With COc1cc(C(C)(C)O)cc(OC)c1-c1ccc(C[C@H](NC(=O)c2c(Cl)cc(C(=O)O)cc2Cl)C(=O)O)cc1 [Compound 1223, 4-{[(1S)-1-carboxy-2-{4-[4-(2-hydroxypropan-2-yl)-2,6-dimethoxyphenyl]phenyl}ethyl]carbamoyl}-3,5-dichlorobenzoic acid] as the compound, how does the IC50 (Table 8) read?
A: 70 nM

Q: How did the IC50 (Table 12) turn out when CCOCc1cc(OC)c(-c2ccc(C[C@H](NC(=O)[C@]3(C)CCCN3S(=O)(=O)c3ccccc3)C(=O)O)cc2)c(OC)c1 [Cmpd 34, (S)-3-(4′-(ethoxymethyl)-2′,6′-dimethoxy-[1,1′-biphenyl]-4-yl)-2-((S)-2-methyl-1-(phenylsulfonyl)pyrrolidine-2-carboxamido)propanoic acid] was run?
A: 11.7 nM

Q: COc1cccc(N2CCC[C@H]2C(=O)N[C@@H](Cc2ccc(-c3c(OC)cccc3OC)cc2)C(=O)O)c1 [Compound 822] was tested. Which IC50 (Table 10) did it give?
A: 69 nM

Q: Which IC50 (Table 8) does the source give for COCCOCCOCCOCc1cc(OC)c(-c2ccc(C[C@H](NC(=O)[C@@H]3CCN3S(=O)(=O)c3ccccc3)C(=O)O)cc2)c(OC)c1 [Compound 2087, (S)-3-(4′-(2,5,8,11-tetraoxadodecyl)-2′,6′-dimethoxy-[1,1′-biphenyl]-4-yl)-2-((S)-1-(phenylsulfonyl)azetidine-2-carboxamido)propanoic acid] here?
A: 2.06 nM

Q: Which IC50 (Table 8) does the source give for COCCOCc1cc(OC)c(-c2ccc(C[C@H](NC(=O)[C@@H]3CCN3S(=O)(=O)c3ccccc3)C(=O)O)cc2)c(OC)c1 [Compound 1745, (S)-3-(2′,6′-dimethoxy-4′-((2-methoxyethoxy)methyl)-[1,1′-biphenyl]-4-yl)-2-((S)-1-(phenylsulfonyl)azetidine-2-carboxamido)propanoic acid] here?
A: 3.7 nM

Q: With CCOCc1cc(OC)c(-c2ccc(C[C@H](NC(=O)[C@]3(C)CCCN3S(=O)(=O)c3cc(Cl)cc(Cl)c3)C(=O)O)cc2)c(OC)c1 [Cmpd 33, (S)-2-((S)-1-((3,5-dichlorophenyl)sulfonyl)-2-methylpyrrolidine-2-carboxamido)-3-(4′-(ethoxymethyl)-2′,6′-dimethoxy-[1,1′-biphenyl]-4-yl)propanoic acid] as the compound, how does the IC50 (Table 12) read?
A: 2.47 nM

Q: Which IC50 (Table 8) does the source give for COCCOCCOCCOCc1cc(OC)c(-c2ccc(C[C@H](NC(=O)c3c(Cl)cc(C(=O)O)cc3Cl)C(=O)O)cc2)c(OC)c1 [Compound 1570, (S)-4-((2-(4′-(2,5,8,11-tetraoxadodecyl)-2′,6′-dimethoxy-[1,1′-biphenyl]-4-yl)-1-carboxyethyl)carbamoyl)-3,5-dichlorobenzoic acid] here?
A: 2.97 nM

Q: And the “inhibition … compared with Firategrast” value?
A: greater inhibition of sVCAM-1 binding than did Firategrast

Q: Which results are given for CCOCc1cc(OC)c(-c2ccc(C[C@H](NC(=O)[C@]3(C)CCCN3S(=O)(=O)c3ccccc3)C(=O)O)cc2)c(OC)c1 [Compound 1609, (S)-3-(4′-(ethoxymethyl)-2′,6′-dimethoxy-[1,1′-biphenyl]-4-yl)-2-((S)-2-methyl-1-(phenylsulfonyl)pyrrolidine-2-carboxamido)propanoic acid]?
A: IC50 (Table 8): 11.7 nM; inhibition of sVCAM-1 binding compared with Firategrast: significantly more potent than Firategrast

Q: With COc1cc(C(C)(C)O)cc(OC)c1-c1ccc(C[C@H](NC(=O)c2c(Cl)cc(C(=O)O)cc2Cl)C(=O)O)cc1 [Cmpd 25, 4-{[(1S)-1-carboxy-2-{4-[4-(2-hydroxypropan-2-yl)-2,6-dimethoxyphenyl]phenyl}ethyl]carbamoyl}-3,5-dichlorobenzoic acid] as the compound, how does the IC50 (Table 12) read?
A: 70 nM

Q: Which IC50 (Table 8) does the source give for COCCOCc1cc(OC)c(-c2ccc(C[C@H](NC(=O)[C@@H]3CCCN3S(=O)(=O)c3ccc(C(=O)O)cc3)C(=O)O)cc2)c(OC)c1 [Compound 1747, 4-(((S)-2-(((S)-1-carboxy-2-(2′,6′-dimethoxy-4′-((2-methoxyethoxy)methyl)-[1,1′-biphenyl]-4-yl)ethyl)carbamoyl)pyrrolidin-1-yl)sulfonyl)benzoic acid] here?
A: 7.58 nM

Q: Which results are given for COc1cccc(OC)c1-c1ccc(C[C@H](NC(=O)c2c(Cl)cccc2Cl)C(=O)O)cc1C(C)O (stereo partly shown) [Compound 1632]?
A: IC50 (Table 10): 10 nM; inhibition of sVCAM-1 binding compared with Firategrast: significantly more potent than Firategrast

Q: With COCCOCc1cc(OC)c(-c2ccc(C[C@H](NC(=O)c3c(Cl)cc(C(=O)O)cc3Cl)C(=O)O)cc2)c(OC)c1 [Compound 1554, (S)-4-((1-carboxy-2-(2′,6′-dimethoxy-4′-((2-methoxyethoxy)methyl)-[1,1′-biphenyl]-4-yl)ethyl)carbamoyl)-3,5-dichlorobenzoic acid] as the compound, how does the IC50 (Table 8) read?
A: 1.47 nM

Q: What about the “inhibition … compared with Firategrast” value of the same compound?
A: greater inhibition of sVCAM-1 binding than did Firategrast

Q: For COc1cc(COC2COC2)cc(OC)c1-c1ccc(C[C@H](NC(=O)[C@@H]2CCCN2S(=O)(=O)c2cc(Cl)cc(Cl)c2)C(=O)O)cc1 [Compound 009], which IC50 (Table 10) is on record?
A: 4.47 nM

Q: For COc1cccc(OC)c1-c1ccc(C[C@H](NC(=O)C2(c3ccccn3)CCCC2)C(=O)O)cc1 [Compound 825], which IC50 (Table 10) is on record?
A: 48 nM
